Data taken from ChEMBL document CHEMBL2390919, “Investigation of the role of linker moieties in bifunctional tacrine hybrids” (Bioorg Med Chem, 2013).
Calls of active or inactive are those of the source. No cut-off for these calls is given here.

What was measured:
Acetylcholinesterase [1] = molecular target: T1, Acetylcholinesterase (Electrophorus electricus, UniProt O42275)
Description: Inhibition of electric eel AChE preincubated for 30 mins prior to horseradish peroxidase, H2O2 and DETAPAC addition measured for 20 mins under ROS condition by Muraoka and Miura method

Acetylcholinesterase [2] = molecular target: T1, Acetylcholinesterase; remark: listed apart in the source
Description: Inhibition of electric eel AChE using acetylthiocholine as substrate preincubated for 10 mins prior to substrate addition measured every 30 seconds for 30 mins by Ellman's method

[3] = molecular target: Acetylcholinesterase (Electrophorus electricus) (UniProt O42275); assay: Non competitive inhibition of electric eel AChE using acetylthiocholine as substrate by Lineweaver-Burk plot analysis
[4] = molecular target: Acetylcholinesterase (Electrophorus electricus) (UniProt O42275); assay: Ratio of tacrine IC50 to compound IC50 for electric eel AChE
[5] = molecular target: Acetylcholinesterase (Electrophorus electricus) (UniProt O42275); assay: Ratio of tacrine IC50 to compound IC50 for electric eel AChE in presence of horseradish peroxidase and H2O2 and DETAPAC

Sequence of Acetylcholinesterase (Electrophorus electricus) (O42275 24-633 limits assumed): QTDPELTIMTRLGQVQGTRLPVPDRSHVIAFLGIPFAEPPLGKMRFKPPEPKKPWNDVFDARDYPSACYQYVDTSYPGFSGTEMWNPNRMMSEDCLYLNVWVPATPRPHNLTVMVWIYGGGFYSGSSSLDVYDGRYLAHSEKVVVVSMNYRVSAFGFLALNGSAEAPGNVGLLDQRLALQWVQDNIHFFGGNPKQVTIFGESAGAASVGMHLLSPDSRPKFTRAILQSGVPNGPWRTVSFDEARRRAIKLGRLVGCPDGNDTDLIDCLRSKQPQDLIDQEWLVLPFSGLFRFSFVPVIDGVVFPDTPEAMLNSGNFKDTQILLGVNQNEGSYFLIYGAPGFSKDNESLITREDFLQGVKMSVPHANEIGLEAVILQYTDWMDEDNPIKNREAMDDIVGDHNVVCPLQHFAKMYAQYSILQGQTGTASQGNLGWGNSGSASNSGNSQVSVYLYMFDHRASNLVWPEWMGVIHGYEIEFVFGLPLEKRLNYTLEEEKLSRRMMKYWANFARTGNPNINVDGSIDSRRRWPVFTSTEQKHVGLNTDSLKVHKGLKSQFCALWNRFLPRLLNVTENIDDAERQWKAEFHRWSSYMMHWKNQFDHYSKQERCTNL
T1 sequence (O42275 whole entry): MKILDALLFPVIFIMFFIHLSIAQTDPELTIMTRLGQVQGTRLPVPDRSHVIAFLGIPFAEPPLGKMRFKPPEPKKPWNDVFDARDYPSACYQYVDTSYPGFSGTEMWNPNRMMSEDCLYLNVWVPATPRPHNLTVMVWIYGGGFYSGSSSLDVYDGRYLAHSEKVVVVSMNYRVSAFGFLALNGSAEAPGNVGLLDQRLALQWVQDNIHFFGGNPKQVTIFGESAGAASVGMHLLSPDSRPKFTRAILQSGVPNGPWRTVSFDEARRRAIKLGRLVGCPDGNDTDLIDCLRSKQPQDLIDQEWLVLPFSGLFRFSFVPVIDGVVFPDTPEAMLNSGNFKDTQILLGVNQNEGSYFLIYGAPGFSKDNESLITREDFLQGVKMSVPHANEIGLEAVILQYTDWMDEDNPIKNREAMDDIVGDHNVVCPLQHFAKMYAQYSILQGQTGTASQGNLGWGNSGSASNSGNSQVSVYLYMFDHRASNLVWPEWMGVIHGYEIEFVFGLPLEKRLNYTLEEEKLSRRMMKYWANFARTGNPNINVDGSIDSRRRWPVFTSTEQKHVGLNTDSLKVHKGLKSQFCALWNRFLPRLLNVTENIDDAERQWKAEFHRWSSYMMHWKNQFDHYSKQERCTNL

In the case of `NCCCCCNc1c2c(nc3cc(Cl)ccc13)CCCC2`, the IC50 (Acetylcholinesterase [1]) is reported as 0.938 µM and the IC50 (Acetylcholinesterase [2]) is reported as 0.051 µM.
For `NCCCCCCNc1c2c(nc3cc(Cl)ccc13)CCCC2`, the IC50 (Acetylcholinesterase [1]) was 0.00785 µM, the inhibition [3] was “Active” and the IC50 (Acetylcholinesterase [2]) was 0.0111 µM.
For `CCCCCCNc1c2c(nc3cc(Cl)ccc13)CCCC2`, the Ratio IC50 [4] was less than 5, the IC50 (Acetylcholinesterase [1]) was 0.0262 µM and the IC50 (Acetylcholinesterase [2]) was 0.0653 µM.
`Cc1cccc(Nc2ccccc2C(=O)NCCCCCCCCNc2c3c(nc4cc(Cl)ccc24)CCCC3)c1C` showed an IC50 (Acetylcholinesterase [1]) of 0.00149 µM and an IC50 (Acetylcholinesterase [2]) of 0.000495 µM.
`NCCCCCCCNc1c2c(nc3cc(Cl)ccc13)CCCC2` was tested, and the IC50 (Acetylcholinesterase [1]) was 0.0151 µM and the IC50 (Acetylcholinesterase [2]) was 0.00537 µM.
In the case of `OCCCCCCNc1c2c(nc3cc(Cl)ccc13)CCCC2`, the IC50 (Acetylcholinesterase [1]) is reported as 0.00247 µM, the inhibition [3] is reported as “Active” and the IC50 (Acetylcholinesterase [2]) is reported as 0.0424 µM.
In the case of `Cc1cccc(Nc2ccccc2C(=O)NCCC(=O)NCCCCCCNc2c3c(nc4cc(Cl)ccc24)CCCC3)c1C`, the IC50 (Acetylcholinesterase [1]) is reported as 0.00296 µM and the IC50 (Acetylcholinesterase [2]) is reported as 0.00114 µM.
For `NCCCCCCCCCCNc1c2c(nc3cc(Cl)ccc13)CCCC2`, the Ratio IC50 [4] was 50, the IC50 (Acetylcholinesterase [1]) was 0.00218 µM and the Ratio IC50 [5] was 30. The IC50 (Acetylcholinesterase [2]) was 0.000932 µM.
Compound `OCCCCCNc1c2c(nc3cc(Cl)ccc13)CCCC2` has an IC50 (Acetylcholinesterase [1]) of 1.52 µM and an IC50 (Acetylcholinesterase [2]) of 0.0725 µM.
Compound `Cc1cccc(Nc2ccccc2C(=O)NCCCC(=O)NCCCCNc2c3c(nc4cc(Cl)ccc24)CCCC3)c1C` has an IC50 (Acetylcholinesterase [1]) of 0.0124 µM and an IC50 (Acetylcholinesterase [2]) of 0.0136 µM.
In the case of `CCCCCCCCCNc1c2c(nc3cc(Cl)ccc13)CCCC2`, the Ratio IC50 [4] is reported as 20, the IC50 (Acetylcholinesterase [1]) is reported as 0.0169 µM and the IC50 (Acetylcholinesterase [2]) is reported as 0.00227 µM.
`Cc1cccc(Nc2ccccc2C(=O)NCCCCCC(=O)NCCCCCCNc2c3c(nc4cc(Cl)ccc24)CCCC3)c1C` showed an IC50 (Acetylcholinesterase [1]) of 0.00739 µM and an IC50 (Acetylcholinesterase [2]) of 0.00294 µM.
Compound `NCCCCNc1c2c(nc3cc(Cl)ccc13)CCCC2` has an IC50 (Acetylcholinesterase [1]) of 0.0658 µM and an IC50 (Acetylcholinesterase [2]) of 0.038 µM.
With `NCCCCCCCCCCCCNc1c2c(nc3cc(Cl)ccc13)CCCC2` the Ratio IC50 [4] was 50, the IC50 (Acetylcholinesterase [1]) was 0.00144 µM and the Ratio IC50 [5] was 30. It also gave an IC50 (Acetylcholinesterase [2]) of 0.000648 µM.
For `CCCCCCCCCCNc1c2c(nc3cc(Cl)ccc13)CCCC2`, the Ratio IC50 [4] was 10, the IC50 (Acetylcholinesterase [1]) was 0.252 µM and the IC50 (Acetylcholinesterase [2]) was 0.00517 µM.
Work on `CCCCCCCCNc1c2c(nc3cc(Cl)ccc13)CCCC2` yielded a Ratio IC50 [4] of less than 5, an IC50 (Acetylcholinesterase [1]) of 0.00795 µM and an IC50 (Acetylcholinesterase [2]) of 0.0196 µM.
`Cc1cccc(Nc2ccccc2C(=O)NCCCCCCCCCCNc2c3c(nc4cc(Cl)ccc24)CCCC3)c1C` gave an IC50 (Acetylcholinesterase [1]) of 0.00185 µM and an IC50 (Acetylcholinesterase [2]) of 0.000776 µM.
Work on `Cc1cccc(Nc2ccccc2C(=O)NCCC(=O)NCCCCCCCNc2c3c(nc4cc(Cl)ccc24)CCCC3)c1C` yielded an IC50 (Acetylcholinesterase [1]) of 0.01 µM and an IC50 (Acetylcholinesterase [2]) of 0.00667 µM.
Compound `Cc1cccc(Nc2ccccc2C(=O)NCCC(=O)NCCCCNc2c3c(nc4cc(Cl)ccc24)CCCC3)c1C` has an IC50 (Acetylcholinesterase [1]) of 0.033 µM and an IC50 (Acetylcholinesterase [2]) of 2.47 µM.
In the case of `Cc1cccc(Nc2ccccc2C(=O)NCCCCCC(=O)NCCCCCCCNc2c3c(nc4cc(Cl)ccc24)CCCC3)c1C`, the IC50 (Acetylcholinesterase [1]) is reported as 0.0134 µM and the IC50 (Acetylcholinesterase [2]) is reported as 0.0111 µM.
In the case of `Cc1cccc(Nc2ccccc2C(=O)NCCCCCCCCCCCCNc2c3c(nc4cc(Cl)ccc24)CCCC3)c1C`, the IC50 (Acetylcholinesterase [1]) is reported as 0.0162 µM and the IC50 (Acetylcholinesterase [2]) is reported as 2.36 µM.
`Cc1cccc(Nc2ccccc2C(=O)NCCCCCCCCCNc2c3c(nc4cc(Cl)ccc24)CCCC3)c1C` showed an IC50 (Acetylcholinesterase [1]) of 0.00672 µM and an IC50 (Acetylcholinesterase [2]) of 0.00694 µM.
For `Cc1cccc(Nc2ccccc2C(=O)NCCCCCC(=O)NCCCCNc2c3c(nc4cc(Cl)ccc24)CCCC3)c1C`, the IC50 (Acetylcholinesterase [1]) was 0.000299 µM and the IC50 (Acetylcholinesterase [2]) was 0.0374 µM.
`CCCCCNc1c2c(nc3cc(Cl)ccc13)CCCC2` showed a Ratio IC50 [4] of less than 5, an IC50 (Acetylcholinesterase [1]) of 0.0432 µM and an IC50 (Acetylcholinesterase [2]) of 0.0263 µM.
With `Cc1cccc(Nc2ccccc2C(=O)NCCCCCCNc2c3c(nc4cc(Cl)ccc24)CCCC3)c1C` the IC50 (Acetylcholinesterase [1]) was 0.00102 µM and the IC50 (Acetylcholinesterase [2]) was 7.23 µM.
For `NCCCCCCCCCNc1c2c(nc3cc(Cl)ccc13)CCCC2`, the Ratio IC50 [4] was 50, the IC50 (Acetylcholinesterase [1]) was 0.00122 µM and the inhibition [3] was “Active”. For the same compound, the Ratio IC50 [5] was 30 and the IC50 (Acetylcholinesterase [2]) was 0.000604 µM.
Work on `NCCCCCCCCNc1c2c(nc3cc(Cl)ccc13)CCCC2` yielded a Ratio IC50 [4] of 50, an IC50 (Acetylcholinesterase [1]) of 0.293 µM and an IC50 (Acetylcholinesterase [2]) of 0.00114 µM.
With `CCCCCCCNc1c2c(nc3cc(Cl)ccc13)CCCC2` the Ratio IC50 [4] was 3, the IC50 (Acetylcholinesterase [1]) was 0.00203 µM and the inhibition [3] was “Active”. The IC50 (Acetylcholinesterase [2]) was 0.016 µM.
`Cc1cccc(Nc2ccccc2C(=O)NCCCC(=O)NCCCCCCNc2c3c(nc4cc(Cl)ccc24)CCCC3)c1C` showed an IC50 (Acetylcholinesterase [1]) of 0.0156 µM and an IC50 (Acetylcholinesterase [2]) of 0.0417 µM.
With `Cc1cccc(Nc2ccccc2C(=O)NCCCC(=O)NCCCCCCCNc2c3c(nc4cc(Cl)ccc24)CCCC3)c1C` the IC50 (Acetylcholinesterase [1]) was 0.00655 µM and the IC50 (Acetylcholinesterase [2]) was 0.00791 µM.
`Cc1cccc(Nc2ccccc2C(=O)NCCCCCCCNc2c3c(nc4cc(Cl)ccc24)CCCC3)c1C` was tested, and the IC50 (Acetylcholinesterase [1]) was 0.0298 µM and the IC50 (Acetylcholinesterase [2]) was 1.38 µM.
